{
  "source": "patent US20260355274A1",
  "about": "(Onkure, Inc., priority 2022, published 2026)",
  "format_in_all_cases": "biochemical",
  "key": {"Class I HDAC": {"system": "Class I HDAC", "assay": "enzymatic inhibition of Class I HDACs (summary)", "settings": "in words", "description": "(§1) The mammalian HDACs can be divided into four classes depending on their sequence homology, sub-cellular distribution and catalytic activity. Class I, Il and IV HDACs have a Zn^2+ cofactor in the catalytic site. Class III HDACs contain sirtuins 1-7 and are NAD^+-dependent. Class I (HDACs 1, 2, 3 and 8) share the same homology as Rpd3 and are preliminarily distributed in the nucleus of normal cells. Class II HDACs can be subdivided into class IIa HDACs and class Ilb HDACs. Class IIa enzymes (HDAC 4, 5, 7 and 9) shuttle between the nucleus and cytoplasm and are located in specific tissues such as the brain, heart, and muscle. Class IIb (HDACs 6 and 10) are chiefly located in the cytoplasm."}, "HDAC 10": {"biological_target": "HDAC 10 (Homo sapiens, UniProt Q969S8)", "assay": "enzymatic inhibition of HDAC 10", "settings": "HDAC 10, Class IIb", "description": "as §1"}, "HDAC 7": {"biological_target": "HDAC 7 (Homo sapiens, UniProt Q8WUI4)", "sequence (Q8WUI4 whole entry)": "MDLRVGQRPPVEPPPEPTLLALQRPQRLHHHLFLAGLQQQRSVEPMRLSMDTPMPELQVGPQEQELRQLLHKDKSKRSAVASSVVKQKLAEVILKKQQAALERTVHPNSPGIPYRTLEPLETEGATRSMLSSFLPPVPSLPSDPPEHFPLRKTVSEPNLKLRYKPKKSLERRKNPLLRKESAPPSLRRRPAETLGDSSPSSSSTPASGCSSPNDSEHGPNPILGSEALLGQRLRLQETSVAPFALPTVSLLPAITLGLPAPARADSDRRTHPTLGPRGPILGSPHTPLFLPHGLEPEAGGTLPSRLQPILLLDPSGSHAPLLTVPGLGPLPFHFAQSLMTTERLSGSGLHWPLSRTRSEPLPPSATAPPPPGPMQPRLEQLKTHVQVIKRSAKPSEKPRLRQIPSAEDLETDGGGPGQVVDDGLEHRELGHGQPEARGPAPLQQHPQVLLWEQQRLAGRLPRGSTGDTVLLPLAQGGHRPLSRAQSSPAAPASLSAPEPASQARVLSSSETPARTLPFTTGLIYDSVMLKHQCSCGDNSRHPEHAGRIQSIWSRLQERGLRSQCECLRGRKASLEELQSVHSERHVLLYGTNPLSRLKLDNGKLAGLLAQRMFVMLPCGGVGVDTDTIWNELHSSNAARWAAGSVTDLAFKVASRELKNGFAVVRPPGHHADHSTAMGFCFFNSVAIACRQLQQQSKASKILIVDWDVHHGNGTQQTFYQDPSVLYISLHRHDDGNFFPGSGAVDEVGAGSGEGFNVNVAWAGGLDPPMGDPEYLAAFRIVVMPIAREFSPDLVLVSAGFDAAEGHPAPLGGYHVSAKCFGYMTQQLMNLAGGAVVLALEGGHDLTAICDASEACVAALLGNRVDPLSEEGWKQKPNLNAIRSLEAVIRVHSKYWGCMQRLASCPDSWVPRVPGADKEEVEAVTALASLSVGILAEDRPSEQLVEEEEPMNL", "assay": "enzymatic inhibition of HDAC 7", "settings": "HDAC 7, Class IIa; read-out: IC50", "description": "as §1"}, "HDAC 8": {"biological_target": "HDAC 8 (Homo sapiens, UniProt Q9BY41)", "assay": "enzymatic inhibition of HDAC 8", "settings": "HDAC 8, Class I; read-out: IC50", "description": "as §1"}, "HDAC 4": {"biological_target": "HDAC 4 (Homo sapiens, UniProt P56524)", "assay": "enzymatic inhibition of HDAC 4", "settings": "HDAC 4, Class IIa; read-out: IC50", "description": "as §1"}, "HDAC 11": {"biological_target": "HDAC 11 (Homo sapiens, UniProt Q96DB2)", "assay": "enzymatic inhibition of HDAC 11", "settings": "HDAC 11, Class IV", "description": "as §1"}, "HDAC 2": {"biological_target": "HDAC 2 (Homo sapiens, UniProt Q92769)", "assay": "enzymatic inhibition of HDAC 2", "settings": "HDAC 2, Class I", "description": "as §1"}, "HDAC 1": {"biological_target": "HDAC 1 (Homo sapiens, UniProt Q13547)", "assay": "enzymatic inhibition of HDAC 1", "settings": "HDAC 1, Class I", "description": "as §1"}, "HDAC 3": {"biological_target": "HDAC 3 (Homo sapiens, UniProt O15379)", "sequence (O15379 whole entry)": "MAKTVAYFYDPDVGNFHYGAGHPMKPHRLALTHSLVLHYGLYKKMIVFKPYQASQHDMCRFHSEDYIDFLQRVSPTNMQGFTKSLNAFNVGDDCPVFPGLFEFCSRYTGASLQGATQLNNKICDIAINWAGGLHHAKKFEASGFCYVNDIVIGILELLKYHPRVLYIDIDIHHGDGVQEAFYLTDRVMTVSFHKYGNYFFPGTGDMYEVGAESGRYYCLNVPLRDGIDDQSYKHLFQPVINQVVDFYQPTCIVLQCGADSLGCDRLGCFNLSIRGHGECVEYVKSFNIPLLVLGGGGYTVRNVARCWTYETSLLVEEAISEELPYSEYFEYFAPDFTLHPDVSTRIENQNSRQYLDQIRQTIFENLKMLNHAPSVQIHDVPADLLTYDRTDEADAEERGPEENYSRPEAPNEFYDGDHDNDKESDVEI", "sequence (Q9Y618 395-489 partner limits assumed)": "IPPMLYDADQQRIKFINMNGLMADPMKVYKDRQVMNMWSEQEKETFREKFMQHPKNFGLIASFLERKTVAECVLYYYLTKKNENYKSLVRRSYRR", "assay": "enzymatic inhibition of HDAC 3", "settings": "HDAC 3, Class I", "description": "as §1"}, "HDAC 5": {"biological_target": "HDAC 5 (Homo sapiens, UniProt Q9UQL6)", "sequence (Q9UQL6 whole entry)": "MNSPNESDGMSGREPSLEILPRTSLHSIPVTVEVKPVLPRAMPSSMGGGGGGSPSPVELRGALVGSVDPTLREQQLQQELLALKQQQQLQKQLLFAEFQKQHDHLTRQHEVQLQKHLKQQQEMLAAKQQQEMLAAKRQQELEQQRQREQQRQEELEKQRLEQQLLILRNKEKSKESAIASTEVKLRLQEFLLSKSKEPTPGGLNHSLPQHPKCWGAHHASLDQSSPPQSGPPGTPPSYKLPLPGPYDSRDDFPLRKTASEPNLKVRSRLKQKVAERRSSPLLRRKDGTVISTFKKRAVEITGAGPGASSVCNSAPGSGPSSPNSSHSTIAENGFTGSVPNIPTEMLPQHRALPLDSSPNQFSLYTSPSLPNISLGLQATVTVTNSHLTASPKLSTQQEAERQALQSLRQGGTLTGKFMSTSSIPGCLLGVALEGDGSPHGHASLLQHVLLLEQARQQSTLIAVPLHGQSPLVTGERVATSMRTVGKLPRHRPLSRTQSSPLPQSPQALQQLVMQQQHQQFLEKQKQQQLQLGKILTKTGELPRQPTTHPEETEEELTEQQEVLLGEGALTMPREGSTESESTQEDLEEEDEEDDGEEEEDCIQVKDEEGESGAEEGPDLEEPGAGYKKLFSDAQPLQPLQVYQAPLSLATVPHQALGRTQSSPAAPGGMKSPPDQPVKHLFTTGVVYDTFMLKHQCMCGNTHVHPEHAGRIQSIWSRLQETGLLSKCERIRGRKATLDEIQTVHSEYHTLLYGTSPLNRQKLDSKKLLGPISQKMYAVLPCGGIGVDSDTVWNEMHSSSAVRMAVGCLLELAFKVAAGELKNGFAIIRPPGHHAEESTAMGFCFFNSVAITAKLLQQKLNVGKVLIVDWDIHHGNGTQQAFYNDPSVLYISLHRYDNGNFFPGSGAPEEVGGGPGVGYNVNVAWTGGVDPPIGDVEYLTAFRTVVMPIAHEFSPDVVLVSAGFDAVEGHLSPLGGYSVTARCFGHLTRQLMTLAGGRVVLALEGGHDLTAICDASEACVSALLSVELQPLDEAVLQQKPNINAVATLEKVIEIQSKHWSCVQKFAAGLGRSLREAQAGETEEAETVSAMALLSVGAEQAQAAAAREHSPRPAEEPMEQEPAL", "assay": "enzymatic inhibition of HDAC 5", "settings": "HDAC 5, Class IIa; read-out: IC50", "description": "as §1"}, "HDAC 9": {"biological_target": "HDAC 9 (Homo sapiens, UniProt Q9UKV0)", "sequence (Q9UKV0 whole entry)": "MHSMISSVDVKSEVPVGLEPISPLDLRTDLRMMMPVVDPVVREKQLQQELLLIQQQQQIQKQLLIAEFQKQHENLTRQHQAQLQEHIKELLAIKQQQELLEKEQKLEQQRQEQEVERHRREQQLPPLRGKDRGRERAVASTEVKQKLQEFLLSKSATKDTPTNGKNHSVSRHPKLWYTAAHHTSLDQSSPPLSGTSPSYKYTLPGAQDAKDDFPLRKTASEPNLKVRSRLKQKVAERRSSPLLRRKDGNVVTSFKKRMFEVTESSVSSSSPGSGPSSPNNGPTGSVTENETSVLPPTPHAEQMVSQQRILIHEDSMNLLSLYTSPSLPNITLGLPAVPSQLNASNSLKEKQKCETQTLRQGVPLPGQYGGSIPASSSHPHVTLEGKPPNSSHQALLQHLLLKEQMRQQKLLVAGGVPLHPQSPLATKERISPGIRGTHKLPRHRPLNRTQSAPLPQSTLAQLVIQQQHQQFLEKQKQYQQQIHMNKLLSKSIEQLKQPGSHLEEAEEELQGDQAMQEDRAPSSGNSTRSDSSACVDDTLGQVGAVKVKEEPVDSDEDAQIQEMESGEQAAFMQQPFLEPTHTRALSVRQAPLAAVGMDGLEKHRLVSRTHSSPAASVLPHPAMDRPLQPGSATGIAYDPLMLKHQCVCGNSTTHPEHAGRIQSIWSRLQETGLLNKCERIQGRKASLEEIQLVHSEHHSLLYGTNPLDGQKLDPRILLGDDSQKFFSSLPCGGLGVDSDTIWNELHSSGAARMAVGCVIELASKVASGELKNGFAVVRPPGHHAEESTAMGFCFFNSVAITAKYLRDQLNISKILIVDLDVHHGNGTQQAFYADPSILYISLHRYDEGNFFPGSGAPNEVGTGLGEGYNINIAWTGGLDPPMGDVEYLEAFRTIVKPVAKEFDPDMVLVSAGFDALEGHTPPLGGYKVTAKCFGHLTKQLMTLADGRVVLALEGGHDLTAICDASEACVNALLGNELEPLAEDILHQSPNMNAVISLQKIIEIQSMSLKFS", "assay": "enzymatic inhibition of HDAC 9", "settings": "HDAC 9, Class IIa; read-out: IC50", "description": "as §1"}, "HDAC 6": {"biological_target": "HDAC 6 (Homo sapiens, UniProt Q9UBN7)", "sequence (Q9UBN7 whole entry)": "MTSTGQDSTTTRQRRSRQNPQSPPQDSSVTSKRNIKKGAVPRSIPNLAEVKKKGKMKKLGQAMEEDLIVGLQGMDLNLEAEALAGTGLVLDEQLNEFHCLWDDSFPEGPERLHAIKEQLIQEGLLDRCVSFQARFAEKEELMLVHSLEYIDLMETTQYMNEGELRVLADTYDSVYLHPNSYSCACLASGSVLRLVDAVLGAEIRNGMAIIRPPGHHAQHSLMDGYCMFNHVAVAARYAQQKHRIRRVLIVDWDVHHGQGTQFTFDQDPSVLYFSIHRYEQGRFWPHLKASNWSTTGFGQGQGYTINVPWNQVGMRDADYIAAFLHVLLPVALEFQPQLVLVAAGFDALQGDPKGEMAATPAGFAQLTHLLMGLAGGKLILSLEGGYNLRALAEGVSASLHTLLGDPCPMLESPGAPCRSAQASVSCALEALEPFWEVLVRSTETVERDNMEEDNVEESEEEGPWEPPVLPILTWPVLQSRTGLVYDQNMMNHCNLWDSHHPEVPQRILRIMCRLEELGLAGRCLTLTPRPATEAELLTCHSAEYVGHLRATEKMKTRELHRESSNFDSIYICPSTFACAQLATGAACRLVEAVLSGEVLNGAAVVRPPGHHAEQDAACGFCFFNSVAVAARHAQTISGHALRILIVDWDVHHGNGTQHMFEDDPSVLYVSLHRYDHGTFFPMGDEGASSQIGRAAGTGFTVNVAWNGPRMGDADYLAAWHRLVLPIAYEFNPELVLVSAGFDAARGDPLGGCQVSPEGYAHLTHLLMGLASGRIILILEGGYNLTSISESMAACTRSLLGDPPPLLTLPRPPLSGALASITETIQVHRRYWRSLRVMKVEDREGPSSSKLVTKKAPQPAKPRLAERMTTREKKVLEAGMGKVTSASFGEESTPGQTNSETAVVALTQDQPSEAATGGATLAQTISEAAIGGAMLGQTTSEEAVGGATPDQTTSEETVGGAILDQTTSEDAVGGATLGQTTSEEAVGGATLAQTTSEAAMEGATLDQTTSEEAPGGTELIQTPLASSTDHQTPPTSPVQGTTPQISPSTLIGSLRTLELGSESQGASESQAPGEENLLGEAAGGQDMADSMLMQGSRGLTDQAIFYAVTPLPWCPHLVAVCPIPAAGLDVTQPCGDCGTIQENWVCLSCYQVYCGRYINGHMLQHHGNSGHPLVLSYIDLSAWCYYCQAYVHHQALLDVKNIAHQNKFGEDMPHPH", "assay": "enzymatic inhibition of HDAC 6", "settings": "HDAC 6, Class IIb; read-out: IC50", "description": "as §1"}},
  "data": [
    {"smiles": "CC(C)[C@@H]1NC(=O)C(C)(C)NC(=O)c2csc(n2)CNC(=O)C[C@@H](/C=C/CCS)OC1=O", "note": "[OKI-006]", "values": [
      {"measurement": "potency / selectivity for Class I HDAC", "setting": "Class I HDAC", "value": "high potency for Class I HDAC inhibitors"},
      {"measurement": "IC50", "setting": "HDAC 10", "value": 2.8, "unit": "nM"},
      {"measurement": "IC50", "setting": "HDAC 7", "value": "> 1000", "unit": "nM"},
      {"measurement": "IC50", "setting": "HDAC 8", "value": 49, "unit": "nM"},
      {"measurement": "IC50", "setting": "HDAC 4", "value": "> 1000", "unit": "nM"},
      {"measurement": "IC50", "setting": "HDAC 11", "value": 2.3, "unit": "nM"},
      {"measurement": "IC50", "setting": "HDAC 2", "value": 2.4, "unit": "nM"},
      {"measurement": "IC50", "setting": "HDAC 1", "value": 1.2, "unit": "nM"},
      {"measurement": "IC50", "setting": "HDAC 3", "value": 2, "unit": "nM"},
      {"measurement": "IC50", "setting": "HDAC 5", "value": "> 1000", "unit": "nM"},
      {"measurement": "IC50", "setting": "HDAC 9", "value": "> 1000", "unit": "nM"},
      {"measurement": "IC50", "setting": "HDAC 6", "value": 47, "unit": "nM"}
    ]}
  ]
}
